This note sets out measurements from patent US20220313701A1, “MODULATORS OF TREX1” (Constellation Pharmaceuticals, Inc., priority 2019, published 2022).

By IC50 is commonly meant the midpoint of a concentration-inhibition curve.

Each structure is given as a SMILES string.

One experiment concerns the target T1, full length human TREX1 (Homo sapiens, UniProt Q9NSU2).
T1 construct: N-terminally His-Tev tagged full length human TREX1; His-Tev (His tag with TEV site) (N); made in house; host or cells: E. coli
T1 sequence (Q9NSU2 1-314): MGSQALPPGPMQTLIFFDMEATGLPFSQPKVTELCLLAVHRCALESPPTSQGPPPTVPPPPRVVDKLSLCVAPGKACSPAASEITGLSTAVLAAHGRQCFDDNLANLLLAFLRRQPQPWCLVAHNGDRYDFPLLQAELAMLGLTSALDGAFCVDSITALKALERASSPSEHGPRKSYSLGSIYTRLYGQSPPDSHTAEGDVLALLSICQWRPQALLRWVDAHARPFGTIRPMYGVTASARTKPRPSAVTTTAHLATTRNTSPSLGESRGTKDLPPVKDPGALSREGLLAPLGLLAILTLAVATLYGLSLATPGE
Description: TREX1 Biochemical Assay (fluorescence assay, degradation of dsDNA substrate). As to conditions: 150 pM TREX1, 60 nM dsDNA substrate, 25 minutes at room temperature. As to the method:
Degradation of the dsDNA liberates free fluorophore to produce a fluorescent signal. Specifically, 7.5 μL of N-terminally His-Tev tagged full length human TREX1 (expressed in E. coli and purified in house) in reaction buffer (50 mM Tris (pH 7.4), 150 mM NaCl, 2 mM DTT, 0.1 mg/mL BSA, 0.01% (v/v) Tween-20 and either 100 mM MgCl2) was added to a 384-well Black ProxiPlate Plus (Perkin Elmer) which already contained compound (150 nL) at varying concentrations as a 10 point dose-response in DMSO. To this was added 7.5 μL of dsDNA substrate (Strand A: 5′ TEX615/GCT AGG CAG 3′; Strand B: 5′ CTG CCT AGC/IAbRQSp (Integrated DNA Technologies)) in reaction buffer. Final concentrations were 150 pM TREX1, 60 nM dsDNA substrate in reaction buffer with 1.0% DMSO (v/v). After 25 minutes at room temperature, reactions were quenched by the addition of 5 μL of stop buffer (same as reaction buffer plus 200 mM EDTA). Final concentrations in the quenched reaction were 112.5 pM TREX1, 45 nM DNA and 50 mM EDTA in a volume of 20 μL. After a 5-minute incubation at room temperature, plates were read in a laser sourced Envision (Perkin-Elmer), measuring fluorescence at 615 nm following excitation w/570 nm light. IC50 values were calculated by comparing the measured fluorescence at 615 nm ratio relative to control wells pre-quenched w/stop buffer (100% inhibition) and no inhibitor (0% inhibition) controls as using non-linear least square four parameter fits and either Genedata or GraphPad Prism (GraphPad Software, Inc.).

Experiment [1] addresses T2, human TREX2 (residues M44-A279) (Homo sapiens, UniProt Q9BQ50).
T2 construct: human TREX2 (residues M44-A279, expressed in E. coli); His-Tev (His tag with TEV site) (N); made in house; host or cells: E. coli
T2 sequence (Q9BQ50 44-279 isoform Q9BQ50-1): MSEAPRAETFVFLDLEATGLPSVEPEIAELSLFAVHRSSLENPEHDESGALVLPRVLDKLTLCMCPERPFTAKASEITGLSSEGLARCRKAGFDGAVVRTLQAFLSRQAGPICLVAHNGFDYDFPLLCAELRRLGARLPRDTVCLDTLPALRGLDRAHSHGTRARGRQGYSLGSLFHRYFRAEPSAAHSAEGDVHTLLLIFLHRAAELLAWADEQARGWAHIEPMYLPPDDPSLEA
Description: TREX2 Biochemical Assay (fluorescence assay, degradation of dsDNA substrate). Conditions: 2.5 nM TREX2, 60 nM dsDNA substrate, 25 minutes at room temperature. As for the experimental part:
Degradation of the dsDNA liberates free fluorophore to produce a fluorescent signal. Specifically, 7.5 μL of N-terminally His-Tev tagged human TREX2 (residues M44-A279, expressed in E. coli and purified in house) in reaction buffer (50 mM Tris (pH 7.4), 150 mM NaCl, 2 mM DTT, 0.1 mg/mL BSA, 0.01% (v/v) Tween-20 and 100 mM MgCl2) was added to a 384-well Black ProxiPlate Plus (Perkin Elmer) which already contained compound (150 nL) at varying concentrations as a 10 point dose-response in DMSO. To this was added 7.5 μL of dsDNA substrate (Strand A: 5′ TEX615/GCT AGG CAG 3′; Strand B: 5′ CTG CCT AGC/IAbRQSp (IDT)) in reaction buffer. Final concentrations were 2.5 nM TREX2, 60 nM dsDNA substrate in reaction buffer with 1.0% DMSO (v/v). After 25 minutes at room temperature, reactions were quenched by the addition of 5 μL of stop buffer (same as reaction buffer plus 200 mM EDTA). Final concentrations in the quenched reaction mixture were […] TREX2, 45 nM DNA and 50 mM EDTA in a volume of 20 μL. After a 5-minute incubation at room temperature, plates were read in a laser sourced Envision (Perkin-Elmer), measuring fluorescence at 615 nm following excitation w/570 nm light. IC50 values were calculated by comparing the measured fluorescence at 615 nm ratio relative to control wells pre-quenched w/stop buffer (100% inhibition) and no inhibitor (0% inhibition) controls as using non-linear least square four parameter fits and either Genedata or GraphPad Prism (GraphPad Software, Inc.).

`CNC(=O)c1ccc(-c2cncc(N3CCC(O)(c4ccc(F)cc4)CC3)n2)cc1` [Example 21, 4-(6-(4-(4-fluorophenyl)-4-hydroxypiperidin-1-yl)pyrazin-2-yl)-N-methylbenzamide]: the concentration for half-maximal inhibition (IC50) against full length human TREX1 was 1 to 10 µM; in experiment [1], > 100 µM.
For `CS(=O)(=O)c1ccc(-c2cncc(N3CCC(O)(c4ccc(F)cc4)CC3)n2)cc1` [Example 22, 4-(4-fluorophenyl)-1-(6-(4-(methylsulfonyl)phenyl)pyrazin-2-yl)piperidin-4-ol], in that order: 1 to 10 µM and > 100 µM.
For `N#Cc1ccccc1-c1cncc(N2CCC(O)(c3ccc(F)cc3)CC2)n1` [Example 23, 2-(6-(4-(4-fluorophenyl)-4-hydroxypiperidin-1-yl)pyrazin-2-yl)benzonitrile], in that order: 1 to 10 µM and > 100 µM.
In the same order, the values of `N#Cc1cccc(-c2cncc(N3CCC(O)(c4ccc(F)cc4)CC3)n2)c1` [Example 24, 3-(6-(4-(4-fluorophenyl)-4-hydroxypiperidin-1-yl)pyrazin-2-yl)benzonitrile] are > 10 µM and > 100 µM.
Regarding `OC1(c2ccc(F)cc2)CCN(c2cncc(-c3ccccc3F)n2)CC1` [Example 25, 4-(4-fluorophenyl)-1-(6-(2-fluorophenyl)pyrazin-2-yl)piperidin-4-ol], the 50% inhibitory concentration (IC50) is 1 to 10 µM against full length human TREX1 and > 100 µM in experiment [1].
For `OC1(c2ccc(F)cc2)CCN(c2cncc(-c3cccc(F)c3)n2)CC1` [Example 26, 4-(4-fluorophenyl)-1-(6-(3-fluorophenyl)pyrazin-2-yl)piperidin-4-ol], in that order: 1 to 10 µM and > 100 µM.
For `OC1(c2ccc(F)cc2)CCN(c2cncc(-c3ccc(F)cc3)n2)CC1` [Example 27, 4-(4-fluorophenyl)-1-(6-(4-fluorophenyl)pyrazin-2-yl)piperidin-4-ol], in that order: > 10 µM and > 100 µM.
`COc1ccccc1-c1cncc(N2CCC(O)(c3ccc(F)cc3)CC2)n1` [Example 28, 4-(4-fluorophenyl)-1-(6-(2-methoxyphenyl)pyrazin-2-yl)piperidin-4-ol]: the IC50 against full length human TREX1 is > 10 µM; in experiment [1] it was > 100 µM.
For `COc1ccc(-c2cncc(N3CCC(O)(c4ccc(F)cc4)CC3)n2)cc1` [Example 29, 4-(4-fluorophenyl)-1-(6-(4-methoxyphenyl)pyrazin-2-yl)piperidin-4-ol], in that order: > 10 µM and > 100 µM.
For `N#Cc1ccc(-c2cncc(N3CCC(O)(c4ccc(F)cc4)CC3)n2)cc1` [Example 30, 4-(6-(4-(4-fluorophenyl)-4-hydroxypiperidin-1-yl)pyrazin-2-yl)benzonitrile], in that order: 1 to 10 µM and > 100 µM.
In the same order, the values of `OC1(c2ccc(F)cc2)CCN(c2cncc(-c3ccccc3C(F)(F)F)n2)CC1` [Example 31, 4-(4-fluorophenyl)-1-(6-(2-(trifluoromethyl)phenyl)pyrazin-2-yl)piperidin-4-ol] are 1 to 10 µM and > 100 µM.
For `OC1(c2ccc(F)cc2)CCN(c2cncc(-c3cccc(C(F)(F)F)c3)n2)CC1` [Example 32, 4-(4-fluorophenyl)-1-(6-(3-(trifluoromethyl)phenyl)pyrazin-2-yl)piperidin-4-ol], the IC50 was > 10 µM on full length human TREX1 and > 100 µM in experiment [1].
In the same order, the values of `OC1(c2ccc(F)cc2)CCN(c2cncc(-c3ccc(C(F)(F)F)cc3)n2)CC1` [Example 33, 4-(4-fluorophenyl)-1-(6-(4-(trifluoromethyl)phenyl)pyrazin-2-yl)piperidin-4-ol] are > 10 µM and > 100 µM.
In the same order, the values of `Cc1ccc(-c2cncc(N3CCC(O)(c4ccc(F)cc4)CC3)n2)cc1` [Example 34, 4-(4-fluorophenyl)-1-(6-(p-tolyl)pyrazin-2-yl)piperidin-4-ol] are 1 to 10 µM and > 100 µM.
In the same order, the values of `OC1(c2ccc(F)cc2)CCN(c2cncc(-c3ccncc3)n2)CC1` [Example 35, 4-(4-fluorophenyl)-1-(6-(pyridin-4-yl)pyrazin-2-yl)piperidin-4-ol] are 1 to 10 µM and > 100 µM.
Turning to `Cn1cc(-c2nccc(N3CCC(O)(c4ccc(F)cc4)CC3)n2)cn1` [Example 36, 4-(4-fluorophenyl)-1-(2-(1-methyl-1H-pyrazol-4-yl)pyrimidin-4-yl)piperidin-4-ol], the 50% inhibitory concentration (IC50) against full length human TREX1 is 0.1 to 1 µM; in experiment [1], > 100 µM.
In the same order, the values of `Cn1cc(-c2ccnc(N3CCC(O)(c4ccc(F)cc4)CC3)n2)cn1` [Example 37, 4-(4-fluorophenyl)-1-(4-(1-methyl-1H-pyrazol-4-yl)pyrimidin-2-yl)piperidin-4-ol] are 1 to 10 µM and > 100 µM.
In the same order, the values of `COC(=O)c1cc(-c2cnn(C)c2)nc(N2CCC(O)(c3ccc(F)cc3)CC2)c1` [Example 38, methyl 2-(4-(4-fluorophenyl)-4-hydroxypiperidin-1-yl)-6-(1-methyl-1H-pyrazol-4-yl)isonicotinate] are 1 to 10 µM and > 100 µM.
`Cc1nn(C)cc1-c1cc(C(N)=O)cc(N2CCC(O)(c3ccc(F)c(F)c3)CC2)n1` [Example 39, 2-(4-(3,4-difluorophenyl)-4-hydroxypiperidin-1-yl)-6-(1,3-dimethyl-1H-pyrazol-4-yl)isonicotinamide]: the values for the half-maximal inhibitory concentration (IC50) (against full length human TREX1; in experiment [1]) were < 0.1 µM and 10 to 100 µM, respectively.
In the same order, the values of `Cc1nn(C)cc1-c1cc(C(=O)NCc2ccccc2)cc(N2CCC(O)(c3ccc(F)c(F)c3)CC2)n1` [Example 40, N-benzyl-2-(4-(3,4-difluorophenyl)-4-hydroxypiperidin-1-yl)-6-(1,3-dimethyl-1H-pyrazol-4-yl)isonicotinamide] are 0.1 to 1 µM and > 100 µM.
For `Cc1nn(C)cc1-c1cc(C(=O)N2CCCCC2)cc(N2CCC(O)(c3ccc(F)c(F)c3)CC2)n1` [Example 41, (2-(4-(3,4-difluorophenyl)-4-hydroxypiperidin-1-yl)-6-(1,3-dimethyl-1H-pyrazol-4-yl)pyridin-4-yl)(piperidin-1-yl)methanone], in that order: < 0.1 µM and 10 to 100 µM.
In the same order, the values of `Cc1nn(C)cc1-c1cccc(N2CCC(O)(c3ccc(F)c(F)c3)CC2)n1` [Example 42, 4-(3,4-difluorophenyl)-1-(6-(1,3-dimethyl-1H-pyrazol-4-yl)pyridin-2-yl)piperidin-4-ol] are 1 to 10 µM and > 100 µM.
Regarding `Cc1cc(-c2cn(C)nc2C)nc(N2CCC(O)(c3ccc(F)c(F)c3)CC2)c1` [Example 43], the IC50 on full length human TREX1 is 0.1 to 1 µM; in experiment [1], > 100 µM.
